Experimental data published in publication PMC11928319 (Nature Plants, 2025).
Values joined by “and” are separate entries in the source; they are usually repeats but may differ in a detail not shown here. Equal values may be shown once.

Tested on: EFR
Assay: Expression of EFR normalized to UBQ5 in roots (RT–qPCR) and pEFR::NLS–3*mVenus reporter
Assay type: in vivo, Arabidopsis thaliana
Conditions: timepoint 1h, single samples
Method: Axenic 14-day-old seedlings (see ‘Agar-based cultivation of axenic plants and co-cultivation with bacteria, bacterial supernatants and elicitors’) were submerged in 12 ml of 10 mM MgSO4 supplemented with 1 µM elicitor or bacteria, which were directly harvested from 0.5× TSB plates and resuspended in 10 mM MgSO4. Bacterial concentration was adjusted to OD600 = 1.5, if not indicated differently. For a heat-killed bacterial inoculum, resuspended bacteria were incubated in boiling water for 30 min. […] For co-exposure to flg22 and AtPep1, seedlings were submerged as described for 1 h, residual liquid was removed and the plants were incubated in a cultivation chamber for 4 h prior to harvesting.
For reverse transcription quantitative PCR (RT–qPCR), roots of eight to ten plants grown on one square plate were pooled for one sample. Frozen roots were homogenized using a TissueLyser II (QIAGEN, 2 × 29 pps for 40 s) with pre-cooled adaptors. RNA was extracted using the Plant RNA Kit (my-Budget) according to the user manual and eluted in 35 µl of elution buffer. RNA concentrations were measured using a spectrometer (Nanodrop OneC Microvolume UV-Vis Spectrophotometer). Complementary DNA was synthesized from 300–500 ng of RNA using the RevertAid H Minus First Strand cDNA Synthesis Kit (ThermoScientific) in a 20-µl reaction according to the user manual. In brief, 1 µl of oligo(dT)18 primer was mixed with RNA in a final volume of 12 µl and incubated at 65 °C for 5 min. Afterwards, 4 µl of 5× Reaction buffer, 2 µl of 10 mM dNTPs, 1 µl of RiboLock RNase Inhibitor (20 U µl^−1) and 1 µl of RevertAid H Minus M-MuLV Reverse Transcriptase (200 U µl^−1) were added, and the reaction was incubated at 42 °C for 60 min followed by heat inactivation at 70 °C for 5 min. cDNA was diluted 1:10 prior to qPCR using the iQ SYBR Green Supermix (Bio-Rad). […]

## Ac-SKEKFERTKPHVNVGTIG [elf18]
Replicate I
  EFR fold_change: 1.977 and 2.517 and 1.4157 and 1.558
Replicate II
  EFR fold_change: 1.051 and 1.166 and 0.9721 and 1.1066
Replicate III
  EFR fold_change: 1.492 and 1.557 and 2.228 and 1.3126
